Reference: paper PMC6071089 (Nanomaterials, 2018)

Test system: C2C12 cells
Assay: Inhibition of CCPs- and caveolae-mediated endocytosis of CK2.3-Qdots
Format: cell-based, murine
Conditions: then 100 nM CK2.3-Qdots 18 h, confocal
Method: C2C12 cells were grown in 35 mm dishes containing 18 mm × 18 mm square coverslips at a cell density of 1 × 10^4 cells/well for two days in DMEM media containing 20% FBS and 1% penicillin/streptomycin and at the end of the 2nd day, cells were serum starved with phenol-free DMEM media supplemented with 1% penicillin/streptomycin, but without FBS for 18 h. Next, we used chlorpromazine from Cayman chemical (Ann Arbor, MI, USA) to inhibit CCPs-mediated endocytosis. […] C2C12 cells were treated with 5 μm of Chlorpromazine in DMEM media supplemented with 10% FBS and 1% penicillin/streptomycin for 24 h [41]. […] C2C12 cells were treated with 50 μm of Lovastatin in phenol-free DMEM without FBS and supplemented only with 1% penicillin/streptomycin for 24 h [41, 42]. […] C2C12 cells were treated with 100 μm of methyl-β-cyclodextrin in phenol-free DMEM without FBS and supplemented only with 1% penicillin/streptomycin for 24 h [43]. […] After 18 h, cells were fixed using 4.4% (w/v) paraformaldehyde purchased from Sigma-Aldrich (St. Louis, MO, USA) for 20 min and permeabilized with 0.05% (w/v) saponin from Sigma-Aldrich (St. Louis, MO, USA) diluted in diH2O, for 10 min on ice. Later the nucleus was stained using 100 μL (0.5 ng/mL) of Hoechst (catalog # 23491-45-4) from Sigma-Aldrich (St. Louis, MO, USA). The coverslips were then mounted on the slides using Airvol [38]. Slides were imaged using Zeiss LSM 710 at 63×/1.4 Plan-Apochromat oil objective.
To inhibit both endocytic pathways we used methyl-β-cyclodextrin (MβCD) [60]. […] C2C12 cells were either left unstimulated or stimulated with the pharmacological inhibitors for 24 h. […] Cells were fixed, and images were collected using a confocal microscope (Figure 11).

CC[C@H](C)C(=O)O[C@H]1C[C@@H](C)C=C2C=C[C@H](C)[C@H](CC[C@@H]3C[C@@H](O)CC(=O)O3)[C@H]21 [lovastatin, Lovastatin]
effect of inhibitor on uptake of CK2.3-Qdots (lovastatin 50 μm, 24 h pre-treatment (caveolae inhibitor)): prevented CK2.3-Qdot®s from entering C2C12 cells

CN(C)CCCN1c2ccccc2Sc2ccc(Cl)cc21 [chlorpromazine, Chlorpromazine]
effect of inhibitor on uptake of CK2.3-Qdots (chlorpromazine 5 μm, 24 h pre-treatment (CCP inhibitor)): did not affect the uptake

Methyl-β-cyclodextrin [MβCD]
effect of inhibitor on uptake of CK2.3-Qdots (methyl-β-cyclodextrin 100 μm, 24 h pre-treatment (CCP and caveolae inhibitor)): prevented CK2.3-Qdot®s from entering C2C12 cells
